# Assays:
# Type in all cases: biochemical
# Human KLK1 = Human KLK1 (Homo sapiens (Human), UniProt P06870); test: Determination of the IC50 for KLK1 (fluorogenic substrate H-DVal-Leu-Arg-AFC); settings: 37° C.
# Experimental: Determination of the IC50 for KLK1
# (§1) Human KLK1 (Callbiochem) was incubated at 37° C. with the fluorogenic substrate H-DVal-Leu-Arg-AFC and various concentrations of the test compound. Residual enzyme activity (initial rate of reaction) was determined by measuring the change in […] at 410 nm and the IC50 value for the test compound was determined.
# Factor XIIa = Factor XIIa (Homo sapiens (Human), UniProt P00748); test: Determination of enzyme selectivity, Factor XIIa; settings: substrate at Km concentration
# Experimental: Determination of Enzyme Selectivity
# Human serine protease enzymes plasmin, thrombin, trypsin, Factor Xa and Factor XIIa were assayed for enzymatic activity using an appropriate fluorogenic substrate. Protease activity was measured by monitoring the accumulation of liberated fluorescence from the substrate over 5 minutes. The linear rate of fluorescence increase per minute was expressed as percentage (%) activity. The Km for the cleavage of each substrate was determined by standard transformation of the Michaelis-Menten equation.
# Human plasma kallikrein = Human plasma kallikrein (Homo sapiens (Human), UniProt P03952); test: Determination of the IC50 for plasma kallikrein (fluorogenic substrate H-DPro-Phe-Arg-AFC); settings: 37° C., read-out: IC50 (human PKaI)
# Experimental: Determination of the IC50 for Plasma Kallikrein
# as §1, with “plasma kallikrein (Protogen)” for “KLK1 (Callbiochem)”, “H-DPro-Phe-Arg-AFC” for “H-DVal-Leu-Arg-AFC”
# Factor XIIa, sequence (P00748 373-615): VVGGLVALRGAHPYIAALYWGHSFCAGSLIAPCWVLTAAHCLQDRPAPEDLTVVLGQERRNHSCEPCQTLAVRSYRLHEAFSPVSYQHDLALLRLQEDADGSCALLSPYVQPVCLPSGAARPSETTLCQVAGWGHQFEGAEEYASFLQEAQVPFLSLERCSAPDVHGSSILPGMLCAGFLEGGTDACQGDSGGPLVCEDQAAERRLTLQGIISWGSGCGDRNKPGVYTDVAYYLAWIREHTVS
# Human KLK1, sequence (P06870 25-262): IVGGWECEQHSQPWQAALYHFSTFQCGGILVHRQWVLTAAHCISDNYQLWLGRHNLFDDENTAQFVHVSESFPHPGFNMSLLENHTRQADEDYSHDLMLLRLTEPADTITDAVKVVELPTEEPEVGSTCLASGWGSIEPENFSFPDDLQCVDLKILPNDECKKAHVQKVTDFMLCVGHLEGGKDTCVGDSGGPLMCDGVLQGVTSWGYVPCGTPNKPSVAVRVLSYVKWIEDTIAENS
# Human plasma kallikrein, sequence (P03952 391-638): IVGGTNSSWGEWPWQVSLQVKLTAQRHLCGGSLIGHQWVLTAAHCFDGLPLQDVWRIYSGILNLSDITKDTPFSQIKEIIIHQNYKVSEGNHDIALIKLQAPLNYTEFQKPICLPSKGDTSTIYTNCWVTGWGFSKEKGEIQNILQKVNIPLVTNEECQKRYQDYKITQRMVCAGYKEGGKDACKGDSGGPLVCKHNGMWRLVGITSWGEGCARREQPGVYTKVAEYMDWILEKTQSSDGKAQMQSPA
# Human plasma kallikrein, sequence (P03952 20-390 partner): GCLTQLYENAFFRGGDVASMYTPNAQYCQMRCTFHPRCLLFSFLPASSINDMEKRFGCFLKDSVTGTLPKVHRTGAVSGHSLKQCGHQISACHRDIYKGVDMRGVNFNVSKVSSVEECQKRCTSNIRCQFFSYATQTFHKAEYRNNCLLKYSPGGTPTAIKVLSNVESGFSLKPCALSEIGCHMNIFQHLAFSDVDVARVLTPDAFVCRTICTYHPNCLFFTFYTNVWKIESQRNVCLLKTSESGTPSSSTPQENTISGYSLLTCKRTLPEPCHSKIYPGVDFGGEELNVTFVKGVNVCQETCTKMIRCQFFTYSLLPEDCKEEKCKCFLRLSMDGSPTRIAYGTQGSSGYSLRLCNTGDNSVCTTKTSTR
Molecule,IC50 (Human KLK1) [µM],IC50 (Factor XIIa) [nM],IC50 (Human plasma kallikrein) [µM]
"1-[4-(4-Methyl-pyrazol-1-ylmethyl)-benzyl]-3-trifluoromethyl-1H-pyrazole-4-carboxylic acid (4,6-dimethyl-1H-pyrrolo[2,3-b]pyridin-5-ylmethyl)-amide [Example 119]",> 4,> 4000,0.0866
"Cc1cc(C(=O)NCc2ccc3ccnc(N)c3c2)c(C)n1Cc1csc(-c2ccccc2)n1 [Example 2, 2,5-Dimethyl-1-(2-phenyl-thiazol-4-ylmethyl)-1H-pyrrole-3-carboxylic acid (1-amino-isoquinolin-7-ylmethyl)-amide]",> 10,> 10000,2.11
"CCn1c(C(=O)NCc2ccc3c(N)nccc3c2)cc(C)c1Cc1ccc(Cn2ccccc2=O)cc1 [Example 6, 1-Ethyl-4-methyl-5-[4-(2-oxo-2H-pyridin-1-ylmethyl)-benzyl]-1H-pyrrole-2-carboxylic acid (1-amino-isoquinolin-6-ylmethyl)-amide]",9.46,> 10000,9.46
"Cc1cnn(Cc2ccc(Cn3cc(C(=O)NCc4ccc5c(N)nccc5c4)c(C(C)C)n3)cc2)c1 [Example 13, 3-Isopropyl-1-[4-(4-methyl-pyrazol-1-ylmethyl)-benzyl]-1H-pyrazole-4-carboxylic acid (1-amino-isoquinolin-6-ylmethyl)-amide]",5.16,> 10000,0.00214
"Cc1cnn(Cc2ccc(Cn3cc(C(=O)NCc4ccc5c(N)nccc5c4)c(C4CCC4)n3)cc2)c1 [Example 14, 3-Cyclobutyl-1-[4-(4-methyl-pyrazol-1-ylmethyl)-benzyl]-1H-pyrazole-4-carboxylic acid (1-amino-isoquinolin-6-ylmethyl)-amide]",5.97,> 10000,0.00462
"Cc1cnn(Cc2ccc(Cc3nc(C)c(C(=O)NCc4ccc5c(N)nccc5c4)s3)cc2)c1 [Example 18, 4-Methyl-2-[4-(4-methyl-pyrazol-1-ylmethyl)-benzyl]-thiazole-5-carboxylic acid (1-amino-isoquinolin-6-ylmethyl)-amide]",> 10,> 10000,0.032
"Cc1cnn(Cc2ccc(Cn3cc(C(=O)NCc4cc5cc[nH]c5nc4C)cn3)cc2)c1 [Example 22, 1-[4-(4-Methyl-pyrazol-1-ylmethyl)-benzyl]-1H-pyrazole-4-carboxylic acid (6-methyl-1H-pyrrolo[2,3-b]pyridin-5-ylmethyl)-amide]",> 10,> 10000,0.132
"Cc1nc(C)c(N(C)Cc2ccc(Cn3cc(C(=O)NCc4ccc5c(N)nccc5c4)cn3)cc2)s1 [Example 46, 1-(4-{[(2,4-Dimethyl-thiazol-5-yl)-methyl-amino]-methyl}-benzyl)-1H-pyrazole-4-carboxylic acid (1-amino-isoquinolin-6-ylmethyl)-amide]",–,> 40000,–
"Cc1cnn(Cc2ccc(Cn3cc(C(=O)NCc4n[nH]c5ccc(Cl)cc45)c(C(F)(F)F)n3)cc2)c1 [Example 127, 1-[4-(4-Methyl-pyrazol-1-ylmethyl)-benzyl]-3-trifluoromethyl-1H-pyrazole-4-carboxylic acid (5-chloro-1H-indazol-3-ylmethyl)-amide]",> 10,–,0.537
"O=C(NCc1n[nH]c2ccc(Cl)cc12)c1cn(Cc2ccc(N3CCCC3)nc2)nc1C(F)(F)F [Example 128, 1-(6-Pyrrolidin-1-yl-pyridin-3-ylmethyl)-3-trifluoromethyl-1H-pyrazole-4-carboxylic acid (5-chloro-1H-indazol-3-ylmethyl)-amide]",> 10,–,0.0249
"O=C(NCc1n[nH]c2ccc(Cl)cc12)c1cn(Cc2ccc(Cn3ccccc3=O)cc2)nc1C(F)(F)F [Example 129, 1-[4-(2-Oxo-2H-pyridin-1-ylmethyl)-benzyl]-3-trifluoromethyl-1H-pyrazole-4-carboxylic acid (5-chloro-1H-indazol-3-ylmethyl)-amide]",> 10,–,0.00214
